Tested on: Adult mongrel dogs, left anterior descending coronary artery (LAD) occlusion/reperfusion
Assay: Infarct size in the dog, 60 min LAD occlusion and 3 h reperfusion
Type: in vivo
Details: AG 30 mg/kg alone, 60 min before occlusion; mean ± SEM
Method: Adult mongrel dogs of either sex, weighing 19.0-30.0 kg were fasted overnight, anaesthetized with intravenous sodium barbital (200 mg/kg) and sodium pentobarbital (15 mg/kg), and ventilated with room air supplemented with 100% oxygen at an end expiratory pressure of 5-7 cm H2O to prevent atelectasis. Arterial blood pH PO2 and PCO2 were monitored at selected intervals by an automatic blood gas system and maintained within a normal physiological range (pH 7.35-7.45, PO2 10.6-16.0 kPa, PCO2 3,3-4.7 kPa) by adjusting the respiratory rate and oxygen flow and by an infusion of 1.5% sodium bicarbonate when necessary. Body temperature was maintained at 38±1° C. by using a heating pad.
A double pressure-transducer-tipped catheter was inserted into the aorta and left ventricle via the left carotid artery for measurements of aortic and left ventricular pressure. Left ventricular dP/dt was determined by electronic differentiation of the left ventricular pressure pulse.
A left thoracotomy was performed at the fifth intercostal space. The lung was retracted, the pericardium incised, and the heart suspended in a cradle. A 10-15 mm segment of the left anterior descending coronary artery (LAD) was dissected from surrounding tissue. […]
Regional myocardial blood flow was measured by the radioactive microsphere technique. […]

N=C(N)NN [AG, aminoguanidine, reference compound]
IS/AAR(%) (infarct size / area at risk): 22.4 ± 2.8%

From US6399590B2, “Phosphoglycolipid and methods for its use” (Corixa Corporation, priority 1998, dated 2002)
